27 compounds from patent US8859580B2 (Boehringer Ingelheim International GmbH, priority 2007, dated 2014) can be followed below.

This assay addresses T1, 11β-HSD1 (Homo sapiens, UniProt P28845).
T1 construct: detecting cortisol generated from cortisterone by human liver microsomes; from tissue; host or cells: human liver microsomes
Put plainly: In vitro inhibition of 11β-HSD1, HTRF detection of cortisol generated from cortisone by human liver microsomes. It counts as biochemical. Conditions: 1 hour at 37° C., pH 6.0, NADPH 200 μM, cortisone 80 nM, inhibition relative to carbenoxolone signal. Summed up: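 Cortisol formed from cortisone by human liver microsomes quantified by competitive HTRF immunoassay (XL665-cortisol, Eu-cryptate anti-cortisol antibody), 2 h detection, Em665/Em615 ratio converted via cortisol calibration curve. Percent inhibition relative to carbenoxolone signal; IC50 from curves.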

SMILES strings stand for the structures. Where two headings read alike, the source gives them in different places.

T1 sequence (P28845 whole entry): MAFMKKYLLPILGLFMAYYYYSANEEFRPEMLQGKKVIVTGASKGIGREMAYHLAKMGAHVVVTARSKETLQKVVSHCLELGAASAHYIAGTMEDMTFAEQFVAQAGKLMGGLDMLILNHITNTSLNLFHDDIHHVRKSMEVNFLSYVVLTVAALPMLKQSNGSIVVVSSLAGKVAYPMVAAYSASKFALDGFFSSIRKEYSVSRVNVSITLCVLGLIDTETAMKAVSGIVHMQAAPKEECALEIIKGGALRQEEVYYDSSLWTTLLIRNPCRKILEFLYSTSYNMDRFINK

`NC(=O)C12CCN(C(=O)c3ccc4nc[nH]c4c3)C(Cc3ccc(O)cc31)C2` (stereo not drawn) [Example 214, 3-(3H-Benzoimidazole-5-carbonyl)-8-hydroxy-2,3,4,5-tetrahydro-1H-2,6-methano-benzo[d]azocine-6-carboxylic acid amide] came in with an IC50 (11β-HSD IC50 (nM)) of 5710 nM.
Take `Cc1cc(C(=O)N2CC[C@@]3(C)c4cccc(O)c4C[C@@H]2C3(C)C)n(C)n1` [Example 215, (2,5-Dimethyl-2H-pyrazol-3-yl)-[(2R,6S)-10-hydroxy-6,11,11-trimethyl-1,2,5,6-tetrahydro-4H-2,6-methano-benzo[d]azocin-3-yl]-methanone]: the IC50 (11β-HSD IC50 (nM)) was found to be 1730 nM.
Same read-out and setting: as for `CC1(C)[C@H]2Cc3c(O)cccc3[C@]1(C)CCN2C(=O)c1ccnn1-c1ccccc1` [Example 216, [(2R,6S)-10-Hydroxy-6,11,11-trimethyl-1,2,5,6-tetrahydro-4H-2,6-methano-benzo[d]azocin-3-yl]-(2-phenyl-2H-pyrazol-3-yl)-methanone], the figure is 1720 nM; as for `CC1(C)[C@H]2Cc3c(O)cccc3[C@]1(C)CCN2C(=O)c1csc2ccccc12` [Example 217, Benzo[b]thiophen-3-yl-[(2R,6S)-10-hydroxy-6,11,11-trimethyl-1,2,5,6-tetrahydro-4H-2,6-methano-benzo[d]azocin-3-yl]-methanone], 410 nM.
Same read-out and setting: as for `CC1(C)[C@H]2Cc3c(O)cccc3[C@]1(C)CCN2C(=O)c1cncn1-c1ccccc1` [Example 218, [(2R,6S)-10-Hydroxy-6,11,11-trimethyl-1,2,5,6-tetrahydro-4H-2,6-methano-benzo[d]azocin-3-yl]-(3-phenyl-3H-imidazol-4-yl)-methanone], the figure is 2710 nM; as for `CC1(C)[C@H]2Cc3c(O)cccc3[C@]1(C)CCN2C(=O)c1n[nH]c2c1CCCC2` [Example 219, [(2R,6S)-10-Hydroxy-6,11,11-trimethyl-1,2,5,6-tetrahydro-4H-2,6-methano-benzo[d]azocin-3-yl]-(4,5,6,7-tetrahydro-1H-indazol-3-yl)-methanone], 160 nM.
As to `CC1(C)[C@H]2Cc3c(O)cccc3[C@]1(C)CCN2C(=O)c1n[nH]c2c1CCC2` [Example 220, [(2R,6S)-10-Hydroxy-6,11,11-trimethyl-1,2,5,6-tetrahydro-4H-2,6-methano-benzo[d]azocin-3-yl]-(1,4,5,6-tetrahydro-cyclopentapyrazol-3-yl)-methanone], it took 549 nM to reach half-maximal inhibition (11β-HSD IC50 (nM)) (IC50).
Compound `CC1(C)[C@H]2Cc3c(O)cccc3[C@]1(C)CCN2C(=O)c1cc(-c2ccccc2)n[nH]1` [Example 221, [(2R,6S)-10-Hydroxy-6,11,11-trimethyl-1,2,5,6-tetrahydro-4H-2,6-methano-benzo[d]azocin-3-yl]-(5-phenyl-2H-pyrazol-3-yl)-methanone] gave an IC50 (11β-HSD IC50 (nM)) of 2430 nM.
Same read-out and setting: for `CCn1cc(C(=O)N2CC[C@@]3(C)c4cccc(O)c4C[C@@H]2C3(C)C)c2ccccc21` [Example 222, (1-Ethyl-1H-indol-3-yl)-[(2R,6S)-10-hydroxy-6,11,11-trimethyl-1,2,5,6-tetrahydro-4H-2,6-methano-benzo[d]azocin-3-yl]-methanone] the value was 124 nM; for `C[C@@H]1[C@H]2Cc3cc(C#N)c(O)cc3[C@]1(C)CCN2C(=O)c1ccc2nc[nH]c2c1` [Example 223, (2R,6R,11S)-3-(3H-Benzoimidazole-5-carbonyl)-8-hydroxy-6,11-dimethyl-1,2,3,4,5,6-hexahydro-2,6-methano-benzo[d]azocine-9-carbonitrile], 106 nM; for `C[C@@H]1[C@H]2Cc3cc4nc[nH]c4cc3[C@]1(C)CCN2C(=O)c1ccc2nc[nH]c2c1` [Example 224, (3H-Benzoimidazol-5-yl)-[(6R,10R,12S)-5,6,7,8,9,10-hexahydro-10,12-dimethyl-6,10-methano-1H-imidazo[5,4-i][3]benzazocin-7-yl]-methanone], 21 nM.
Still for that read-out and setting: for `Cc1cc(C(=O)N2CC[C@@]3(C)c4cccc(O)c4C[C@@H]2C3(C)C)cc2nc[nH]c12` [Example 225, [(2R,6S)-10-Hydroxy-6,11,11-trimethyl-1,2,5,6-tetrahydro-4H-2,6-methano-benzo[d]azocin-3-yl]-(7-methyl-1H-benzoimidazol-5-yl)-methanone] the value was 98 nM.
On to `N#CC12CCN(C(=O)c3ccc4nc[nH]c4c3)C(Cc3ccc(O)cc31)C2` (stereo not drawn) [Example 226, 3-(3H-Benzoimidazole-5-carbonyl)-8-hydroxy-2,3,4,5-tetrahydro-1H-2,6-methano-benzo[d]azocine-6-carbonitrile], for which half-maximal inhibition (11β-HSD IC50 (nM)) (IC50) was put at 1410 nM.
On the same count and under the same terms, as for `C[C@@H]1[C@H]2Cc3cc(C#N)ccc3[C@]1(C)CCN2C(=O)c1ccc2nc[nH]c2c1` [Example 227, (2R,6R,11S)-3-(3H-Benzoimidazole-5-carbonyl)-6,11-dimethyl-1,2,3,4,5,6-hexahydro-2,6-methano-benzo[d]azocine-9-carbonitrile], the figure is 25 nM.
On the same count and under the same terms, as for `C[C@@H]1[C@H]2Cc3ccc(-c4nnn[nH]4)cc3[C@]1(C)CCN2C(=O)c1ccc2nc[nH]c2c1` [Example 228, (2R,6R,11S)-(3H-Benzoimidazol-5-yl)-[6,11-dimethyl-8-(1H-tetrazol-5-yl)-1,2,5,6-tetrahydro-4H-2,6-methano-benzo[d]azocin-3-yl]-methanone], the figure is 236 nM; as for `CC(C)(O)c1ccc2c(c1)[C@]1(C)CCN(C(=O)c3ccc4nc[nH]c4c3)[C@H](C2)C1(C)C` [Example 229, (3H-Benzoimidazol-5-yl)-[(2R,6S)-8-(1-hydroxy-1-methyl-ethyl)-6,11,11-trimethyl-1,2,5,6-tetrahydro-4H-2,6-methano-benzo[d]azocin-3-yl]-methanone], 68 nM.
Compound `Cc1nc(-c2ccc3c(c2)[C@]2(C)CCN(C(=O)c4ccc5nc[nH]c5c4)[C@H](C3)[C@H]2C)no1` [Example 231, (3H-Benzoimidazol-5-yl)-[(2R,6R,11S)-6,11-dimethyl-8-(5-methyl-[1,2,4]oxadiazol-3-yl)-1,2,5,6-tetrahydro-4H-2,6-methano-benzo[d]azocin-3-yl]-methanone] returned an IC50 (11β-HSD IC50 (nM)) of 146 nM.
Same read-out and setting: for `C[C@@H]1[C@H]2Cc3ccc(-c4ncon4)cc3[C@]1(C)CCN2C(=O)c1ccc2nc[nH]c2c1` [Example 232, (3H-Benzoimidazol-5-yl)-[(2R,6R,11S)-6,11-dimethyl-8-[1,2,4]oxadiazol-3-yl-1,2,5,6-tetrahydro-4H-2,6-methano-benzo[d]azocin-3-yl]-methanone] the value was 132 nM; for `CC1(C)[C@H]2Cc3ccc(S(C)(=O)=O)cc3[C@]1(C)CCN2C(=O)c1ccc2nc[nH]c2c1` [Example 233, (3H-Benzoimidazol-5-yl)-[(2R,6S)-8-methanesulfonyl-6,11,11-trimethyl-1,2,5,6-tetrahydro-4H-2,6-methano-benzo[d]azocin-3-yl)-methanone], 144 nM; for `CC1(C)[C@H]2Cc3c(cccc3S(C)(=O)=O)[C@]1(C)CCN2C(=O)c1ccc2nc[nH]c2c1` [Example 234, (3H-Benzoimidazol-5-yl)-[(2R,6S)-10-methanesulfonyl-6,11,11-trimethyl-1,2,5,6-tetrahydro-4H-2,6-methano-benzo[d]azocin-3-yl)-methanone], 3120 nM.
Compound `CC1(C)[C@H]2Cc3cc4nccnc4cc3[C@]1(C)CCN2C(=O)c1ccc2nc[nH]c2c1` [Example 235, (3H-Benzoimidazol-5-yl)-[(7R,11S)-6,7,8,9,10,11-hexahydro-11,13,13-trimethyl-6,10-methano-pyrazino[2,3-i][3]benzazocin-8-yl]-methanone] returned a half-inhibitory concentration (IC50) (11β-HSD IC50 (nM)) of 95 nM.
`C[C@H]1[C@H]2CC3=CC(C#N)CC=C3[C@]1(C)CCN2C(=O)c1ccc2nc[nH]c2c1` (stereo partly drawn) [Example 236, (2R,6R,11R)-3-(3H-Benzoimidazole-5-carbonyl)-6,11-dimethyl-1,2,3,4,5,6,8,9-octahydro-2,6-methano-benzo[d]azocine-9-carbonitrile]: for the setting “read-out: 11β-HSD IC50”, the IC50 was found to be 189 nM.
`CN(C)S(=O)(=O)c1ccc2c(c1)C[C@H]1N(C(=O)c3ccc4nc[nH]c4c3)CC[C@]2(C)C1(C)C` [Example 237, (2R,6S)-3-(3H-Benzoimidazole-5-carbonyl)-6,11,11-trimethyl-1,2,3,4,5,6-hexahydro-2,6-methano-benzo[d]azocine-9-sulfonic acid dimethylamide] came in with an IC50 (11β-HSD IC50 (nM)) of 916 nM.
On the same count and under the same terms, as for `Cc1nc2cc3c(cc2[nH]1)[C@]1(C)CCN(C(=O)c2ccc4nc[nH]c4c2)[C@H](C3)C1(C)C` [Example 238, (3H-Benzoimidazol-5-yl)-[(6R,10S)-5,6,7,8,9,10-hexahydro-2,10,12,12-tetramethyl-6,10-methano-1H-imidazo[5,4-i][3]benzazocin-7-yl]-methanone], the figure is 24 nM; as for `CC1(C)[C@H]2Cc3cc4nc[nH]c4cc3[C@]1(C)CCN2C(=O)c1ccc2nc[nH]c2c1` [Example 239, (3H-Benzoimidazol-5-yl)-[(6R,10S)-5,6,7,8,9,10-hexahydro-10,12,12-trimethyl-6,10-methano-1H-imidazo[5,4-i][3]benzazocin-7-yl]-methanone], 24 nM; as for `Cn1cnc2cc3c(cc21)C[C@H]1N(C(=O)c2ccc4nc[nH]c4c2)CC[C@]3(C)C1(C)C` [Example 240, (3H-Benzoimidazol-5-yl)-[(6R,10S)-5,6,7,8,9,10-hexahydro-3,10,12,12-tetramethyl-6,10-methano-imidazo[4,5-i][3]benzazocin-7-yl]-methanone], 51 nM.
Where the note is “11β-HSD IC50 (nM)”, `Cn1cnc2cc3c(cc21)[C@]1(C)CCN(C(=O)c2ccc4nc[nH]c4c2)[C@H](C3)C1(C)C` [Example 241, (3H-Benzoimidazol-5-yl)-[(6R,10S)-5,6,7,8,9,10-hexahydro-1,10,12,12-tetramethyl-6,10-methano-imidazo[5,4-i][3]benzazocin-7-yl]-methanone] registered an IC50 of 204 nM.
